These results are taken from patent US20150125471A1, “METHOD AND PHARMACEUTICAL COMPOSITION FOR USE IN THE TREATMENT AND DIAGNOTIC OF ANEMIA OF INFLAMMATION” (INSERM (INSTITUT NATIONAL DE LA SANTE ET DE LA RECHERCHE …, priority 2012, published 2015).

One assay deals with hepcidin expression. The settings on record: cultured hepatoma-derived cells, zebrafish, mouse, or rat; cited from earlier work.
Assay [1] deals with Hepcidin (Hamp) mRNA in mouse primary hepatocytes. As to the kind of experiment: Hepcidin mRNA expression in mouse primary hepatocytes by qRT-PCR. The format is cell-based. The settings on record: for hepcidin mRNA increase / hepcidin −ΔΔCt ±SD: primary hepatocytes from Bmp6-deficient mice, 50 ng/ml each, 2 h30. The procedure: (§1) Mouse primary hepatocytes were isolated from ten-week-old Bmp6-deficient mice using a collagenase perfusion protocol (Lin et al., 2007). The viable hepatocyte population was further purified by a Percoll gradient centrifugation. Hepatocytes were plated in 6-well collagen-coated plates at 7×10^5 cells per well and cultured in DMEM supplemented with 10% FCS and antibiotics for 18 hours. After serum starvation for 5 hours in 0.1% FCS, hepatocytes were stimulated with IL-6 (50 ng/ml) and/or activin B (50 ng/ml), or vehicle, in the presence or absence of LDN-193189 (l μM), and RNA was harvested 1, 2, 3, and 4 hours later.
(§2) Total RNA from mouse liver, human hepatoma cells, or mouse primary hepatocytes, was extracted using Trizol (Invitrogen). cDNA was synthesized using MMLV-RT (Promega). Quantitative PCR (Q-PCR) reactions were prepared with LightCycler® 480 DNA SYBR Green I Master reaction mix (Roche Diagnostics) and run in duplicate on a LightCycler® 480 Instrument (Roche Diagnostics).
(§3) Means of −ΔCt (i.e., Ct Hprt−Ct target)±standard deviation (SD) were calculated for the different groups of mice. Means of −ΔCt values between LPS-challenged and unchallenged mice were compared by Student's t-tests. Because, in addition to inflammation, mouse genotype (wild-type versus Bmp6−/−) may also affect mean −ΔCt values, we used two-way analysis of variance (ANOVA) to test for the effect of both factors and their interaction. Differences between mean −ΔCt at a specific time point after LPS administration and mean −ΔCt at time 0 (−ΔΔCt±SD) were also calculated and point estimations of fold changes induced by LPS administration obtained by raising 2 to the power −ΔΔCt (Yuan et al., 2006). For HepG2 cells or mouse primary hepatocytes, −ΔΔCt values (i.e., −ΔCt treatment+ΔCt vehicle)±SD were obtained for each condition and means of −ΔΔCt were compared to 0 by Student's t-tests.
For orientation: Quantitative PCR measures a nucleic acid by following its amplification.

In assay [2] the test system is Smad1/5/8 phosphorylation in mouse primary hepatocytes. The assay is described as follows: Smad1/5/8 phosphorylation in mouse primary hepatocytes by immunoblot. The format is cell-based. The procedure:
as §1
(§4) Livers were homogenized in a FastPrep®-24 Instrument (MP Biomedicals) for 15 sec at 4 m/s. The lysis buffer (50 mM Tris-HCl, pH 8, 150 mM NaCl, 5 mM EDTA, pH 8, 0.1% NP-40) included inhibitors of proteases (complete protease inhibitor cocktail, Roche Applied Science) and of phosphatases (phosphatase inhibitor cocktail 2, Sigma-Aldrich). Liver proteins were quantified using the Bio-Rad Protein Assay kit. HepG2 cells and mouse primary hepatocytes were lysed in RIPA buffer (Sigma-Aldrich) supplemented with protease and phosphatase inhibitors, and proteins were quantified using the Bio-Rad DC Protein Assay.
(§5) Fresh protein extracts were diluted in Laemmli buffer (Sigma-Aldrich), incubated for 5 minutes at 95° C., and subjected to SDS-PAGE. […]
A general note: A western blot detects proteins with antibodies after separation by electrophoresis.

In assay [3] the test system is Hepcidin (Hamp) mRNA in HepG2 cells. The assay is described as follows: Hepcidin mRNA expression in HepG2 cells by qRT-PCR. The format is cell-based, human. The note with it: for hepcidin mRNA expression increase / hepcidin −ΔΔCt ±SD: HepG2 cells, 50 ng/ml each, peak levels 4 hours after treatment. The procedure:
(§6) Human hepatoma cells (HepG2; ATCC) were cultured in high glucose Dulbecco's Modified Eagle Media (DMEM) supplemented with 10% fetal calf serum (FCS) and antibiotics. For stimulation experiments, cells were transferred to 6-well dishes and starved with DMEM containing 0.1% FCS for 5 hours before exposure to IL-6 (50 ng/ml; R&D Systems) and/or activin A (50 ng/ml; R&D) or activin B (50 ng/ml; R&D) for 1 h30, 2 h30, 4 h, 6 h, and 24 h. The pharmacological inhibitor LDN-193189 (100 nM; Axon Medchem), ALK2-Fc (1 μg/mL; R&D), or ALK3-Fc (1 μg/mL; R&D) were added 30 min prior to activin B exposure.
as §2, §3

For another assay, the system named is BMP type I receptors. The settings on record: 100 nM; cited from earlier work.
In assay [4] the test system is SMAD1/5/8 phosphorylation in HepG2 cells. As to the kind of experiment: SMAD1/5/8 phosphorylation in HepG2 cells by immunoblot. Type of assay: cell-based, human. The settings on record: 2 h30, 4 or 6 hours; for SMAD1/5/8 phosphorylation: HepG2, 50 ng/ml. The procedure:
as §6, §4
Fresh protein extracts were diluted in Laemmli buffer (Sigma-Aldrich), incubated for 5 minutes at 95° C., and subjected to SDS-PAGE. Proteins were then transferred to PVDF membranes (Millipore). Membranes were blocked with 5% of dry milk in TBS-T buffer (10 mM Tris-HCl, pH 7.5, 150 mM NaCl, 0.15% Tween 20). They were incubated with rabbit antibodies to phospho-Smad1/5/8 (Cell Signaling Technology) or phospho-Stat3 (Cell Signaling) at 4° C. overnight, and washed with TBS-T buffer. Following incubation with a goat anti-rabbit IgG antibody (Cell Signaling) conjugated to horseradish peroxidase (HRP), enzyme activity was visualized by an ECL-based detection system (Millipore). Blots were then stripped and reprobed with rabbit antibodies to Smad5 (Epitomics) or Stat3 (Cell Signaling) 2 hours at RT before incubation with the goat anti-rabbit HRP-linked antibody.

Assay [5] relates to STAT3 phosphorylation in HepG2 cells. The assay is described as follows: STAT3 phosphorylation in HepG2 cells by immunoblot. Type of assay: cell-based, human. The settings on record: HepG2, 50 ng/ml. The procedure:
as §6, §4
Fresh protein extracts were diluted in Laemmli buffer (Sigma-Aldrich), incubated for 5 minutes at 95° C., and subjected to SDS-PAGE. Proteins were then transferred to PVDF membranes (Millipore). […]

Assay [6] has as its system Stat3 signaling in mouse primary hepatocytes. The assay is described as follows: Stat3 signaling in mouse primary hepatocytes by immunoblot. Type of assay: cell-based. The note with it: 50 ng/ml, 2 h30. The procedure: as §1, §4, §5

With `c1ccc2c(-c3cnn4cc(-c5ccc(N6CCNCC6)cc5)cnc34)ccnc2c1` [LDN-193189, reference compound], in the assay on hepcidin expression, the “induction of hepcidin expression by IL-6, turpentine, or group A streptococcal peptidoglycan-polysaccharide” value is given as “blocks induction of hepcidin expression”. Also, the “effect on upregulation of Hamp gene expression by activin B” value in assay [1] (mouse primary hepatocytes, 1 μM, activin B 50 ng/ml) is reported as “prevented”. In addition, the “effect on Smad1/5/8 phosphorylation induced by activin B” value was “prevented induction of Smad1/5/8 phosphorylation” in assay [2] (1 μM, activin B 50 ng/ml for 2 h30) and “completely abolished” in assay [4] (HepG2, 100 nM added 30 min before activin B (50 ng/ml)). Further, in assay [3] (HepG2, 100 nM added 30 min before activin B (50 ng/ml), 2 h30, 4 or 6 hours after stimulation), the “effect on induction of hepcidin gene expression by activin B” value is on record as “completely abolished”. Moreover, the “activity of BMP type I receptors” value in the assay on BMP type I receptors is given as “inhibit activity of BMP type I receptors”.
Regarding “IL-6: interleukin-6 cytokine, R&D Systems”, in assay [1], the “hepcidin mRNA increase” value is “about 1.8 fold” and the “hepcidin −ΔΔCt ±SD” value was 0.82±0.24. In addition, the STAT3 phosphorylation entry in assay [5] was “induces STAT3 phosphorylation”. In assay [3], the “hepcidin mRNA expression increase” value was “about 6 fold” and the “hepcidin −ΔΔCt ±SD” value is on record as 2.63±0.26. In addition, the Stat3 signaling entry in assay [6] is listed as “strong activation of Stat3 signaling”.
In the case of activin A, the SMAD1/5/8 phosphorylation entry in assay [4] was “not shared with activin A”.
For the molecule activin B, in assay [1], the “hepcidin mRNA increase” value is listed as “about 7 fold” and the “hepcidin −ΔΔCt ±SD” value was 2.81±0.92. Moreover, the SMAD1/5/8 phosphorylation result in assay [2] (50 ng/ml, 2 h30) is reported as “induces”. Also, in assay [3], the “hepcidin mRNA expression increase” value is “about 13 fold” and the “hepcidin −ΔΔCt ±SD” value is on record as 3.71±0.46. The SMAD1/5/8 phosphorylation entry in assay [4] was “induces the phosphorylation of the SMAD effectors 1, 5 and 8”.
